Experimental data from patent publication US10117950B2, “Compounds and compositions for the treatment of ocular disorders” (Graybug Vision, Inc., priority 2015, dated 2018).
Like-named read-outs stand apart in the source and are kept apart here.

Assays:
[1] = biological target: T1, bovine erythrocyte carbonic anhydrase II (Bos taurus, UniProt P00921); experiment: Carbonic anhydrase II inhibition, colorimetric 4-nitrophenyl acetate hydrolysis; type: biochemical; conditions: for IC50: n = 2
T1 construct: purified bovine erythrocyte carbonic anhydrase II; from tissue; host or cells: bovine erythrocytes
Method: The catalytic activity of carbonic anhydrase II was assessed by a colorimetric method, in which 4-nitrophenyl acetate is hydrolyzed to acetate and nitrophenolate. The nitrophenolate ionizes to generate a bright yellow anion that is readily detected by measuring its absorbance at 350-400 nm. […] Acetazolamide was added as a positive control and 100% DMSO was added as a negative control. The reaction was initiated with the addition of 20 μL of 4-nitrophenyl acetate (0.7 mM in ethanol).

[2] = In vitro stability of brinzolamide and dorzolamide NCEs (RP-HPLC); conditions: PBS pH 7, 10% DMSO; for in vitro stability / degradation kinetics: 37° C. and accelerated conditions, 14-19 days; for primary compound remaining: 37° C.
Method: The samples were incubated at 37° C. or 50° C. to simulate physiological and accelerated degradation conditions, respectively. At various time points, 100 μL of the solution was collected, diluted 10-fold with MeCN+0.1% formic acid, filtered through a 0.2 μm nylon syringe filter and analyzed by RP-HPLC.

[3] = Determination of drug solubility; type: physicochemical; conditions: for solubility: thermodynamic from solid
Method: For each test, approximately 5-10 mg was transferred to a 10 mL glass vial. Aqueous or organic solvent was added to each vial to achieve an overall concentration of 50 mg/mL. After vortexing aggressively for 2-3 minutes and sonicating in a bath sonicator for 5 minutes, undissolved drug was spun down at 1200 rpm for 5 minutes to generate a pellet. The supernatant was collected and filtered through a 0.2 μm nylon syringe filter into HPLC vials for drug content analysis. Drug concentration was determined by comparing against a standard calibration curve.

[4] = In vitro stability of bifunctional conjugates (HPLC, 254 nm); type: physicochemical; conditions: PBS pH 7.0, 20% DMSO
Method: Briefly, brinzolamide-PLA (n=4)-succinate-5-hydroxy-sunitinib (60-1) or dorzolamide-PLA (n=4)-succinate-5-hydroxy-sunitinib (58-5) was first dissolved in a solution of PBS (pH 7.0) with 20% DMSO (v/v) and incubated at 37° C. or 60° C. for 14 days.

[5] = DCM, organic solvent or mixture, read-out: Solubility DCM
[6] = DMSO, organic solvent or mixture, read-out: Solubility DMSO
[7] = water / aqueous solvent, read-out: Solubility Water

T1 sequence (P00921 whole entry): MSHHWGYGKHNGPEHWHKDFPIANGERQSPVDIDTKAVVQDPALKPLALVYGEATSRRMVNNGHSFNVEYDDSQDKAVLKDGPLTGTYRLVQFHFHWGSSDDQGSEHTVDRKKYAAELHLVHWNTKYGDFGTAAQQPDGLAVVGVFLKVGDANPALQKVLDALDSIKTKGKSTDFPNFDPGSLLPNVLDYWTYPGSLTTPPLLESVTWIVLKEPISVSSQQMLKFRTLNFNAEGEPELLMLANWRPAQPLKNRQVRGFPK

| IC50 [1] [nM] | solubility [3, 5] [mg/mL] | solubility [3, 6] [mg/mL] | solubility [3, 7] [mg/mL] | SMILES | further results |
| --- | --- | --- | --- | --- | --- |
| 5.78 ± 3.78 |  |  |  | CCN[C@H]1CN(CCCOC)S(=O)(=O)c2sc(S(=O)(=O)NC(=O)[C@H](C)O)cc21 [32-3, brinzolamide-PLA (n=1)] | in vitro stability / degradation kinetics [2]: slowest; primary compound remaining ([2]; 14 days): > 98% |
| 10.7 ± 7.27 | > 50 | > 50 | > 50 | CCN[C@H]1CN(CCCOC)S(=O)(=O)c2sc(S(=O)(=O)NC(=O)[C@H](C)OC(=O)[C@H](C)O)cc21 [33-2, brinzolamide-PLA (n=2)] | primary compound remaining ([2]; 14 days): approximately 53% |
| 21.5 ± 11.2 | > 50 | > 50 | > 50 | CCN[C@H]1CN(CCCOC)S(=O)(=O)c2sc(S(=O)(=O)NC(=O)[C@H](C)OC(=O)[C@H](C)OC(=O)[C@H](C)O)cc21 [34-2, brinzolamide-PLA (n=3)] | in vitro stability / degradation kinetics [2]: minimal degradation to the parent compound; primary compound remaining ([2]; day 7): approximately 2.7% |
|  | > 50 | > 50 | > 50 | CCN[C@H]1CN(CCCOC)S(=O)(=O)c2sc(S(=O)(=O)NC(=O)[C@H](C)OC(=O)[C@H](C)OC(=O)[C@H](C)OC(C)=O)cc21 [36-1, brinzolamide-acetyl PLA (n=3)] | primary compound remaining ([2]; day 7): approximately 15.4% |
| 172 ± 35.6 | > 50 | > 50 | < 1 | CCN[C@H]1CN(CCCOC)S(=O)(=O)c2sc(S(=O)(=O)NC(=O)[C@H](C)OC(=O)[C@H](C)OC(=O)[C@H](C)OC(=O)[C@H](C)OC(=O)[C@H](C)OC(=O)[C@H](C)OC(C)=O)cc21 [39-1, brinzolamide-acetyl PLA (n=6)] |  |
|  |  | > 50 | < 1 | CCN(CC)CCNC(=O)c1c(C)[nH]c(/C=C2\C(=O)Nc3ccc(N)cc32)c1C [47-1, 5-[5-amino-2-oxo-1,2-dihydro-indol-(3Z)-ylidenemethyl]-2,4-dimethyl-1H-pyrrole-3-carboxylic acid (2-diethylamino-ethyl)-amide] |  |
| 184 ± 44.8 |  | > 50 | < 1 | CCN[C@H]1C[C@H](C)S(=O)(=O)c2sc(S(=O)(=O)NC(=O)[C@H](C)OC(=O)[C@H](C)OC(=O)[C@H](C)OC(=O)CCC(=O)Oc3ccc4c(c3)/C(=C/c3[nH]c(C)c(C(=O)NCCN(CC)CC)c3C)C(=O)N4)cc21 [56-5, (3Z)-3-[(4-{[2-(Diethylamino)ethyl]carbamoyl}-3,5-dimethyl-1H-pyrrol-2-yl)methylidene]-2-oxo-2,3-dihydro-1H-indol-5-yl 1-(2S)-1-{[(2S)-1-[(1S)-1-({[(2S,4S)-4-(ethylamino)-2-methyl-1,1-dioxo-2H,3H,4H-1λ^6-thieno[2,3-b]thiopyran-6-yl]sulfonyl}carbamoyl)ethoxy]-1-oxopropan-2-yl]oxy}-1-oxopropan-2-yl butanedioate] | carbonic anhydrase inhibitory activity [1]: lowest inhibitory activity |
|  |  | > 50 | < 1 | CCN(CC)CCNC(=O)c1c(C)[nH]c(/C=C2\C(=O)Nc3ccc(OC(=O)CCCCC(=O)N(CC)[C@H]4CN(CCCOC)S(=O)(=O)c5sc(S(=O)(=O)NC(=O)[C@H](C)OC(=O)[C@H](C)OC(=O)[C@H](C)O)cc54)cc32)c1C [61-2, (3Z)-3-[(4-{[2-(diethylamino)ethyl]carbamoyl}-3,5-dimethyl-1H-pyrrol-2-yl)methylidene]-2-oxo-2,3-dihydro-1H-indol-5-yl 5-{ethyl[(4R)-6-{[(2S)-2-{[(2S)-2-{[(2S)-2-hydroxypropanoyl]oxy}propanoyl]oxy}propanamido]sulfonyl}-2-(3-methoxypropyl)-1,1-dioxo-2H,3H,4H-1λ^6-thieno[3,2-e][1,2]thiazin-4-yl]carbamoyl}pentanoate] |  |
|  | < 1 | < 1 | > 50 | CCN[C@H]1C[C@H](C)S(=O)(=O)c2sc(S(N)(=O)=O)cc21 [Dorzolamide, reference compound] | organic solubility ([3]; organic solvent): low organic solubility; Solubility Water ([3]; water / aqueous solvent): >50 mg/mL |

Further lines, the compound ahead of its results:

| SMILES | IC50 [1] [nM] | solubility [3, 5] [mg/mL] | solubility [3, 6] [mg/mL] | solubility [3, 7] [mg/mL] | further results |
| --- | --- | --- | --- | --- | --- |
| CCN[C@H]1C[C@H](C)S(=O)(=O)c2sc(S(=O)(=O)NC(=O)[C@H](C)O)cc21 [19-3, dorzolamide-PLA (n=1)] | 3.32 ± 2.71 |  |  |  | in vitro stability / degradation kinetics [2]: the most stable |
| CCN[C@H]1C[C@H](C)S(=O)(=O)c2sc(S(=O)(=O)NC(=O)[C@H](C)OC(=O)[C@H](C)OC(=O)[C@H](C)OC(C)=O)cc21 [26-1] | 16.4 ± 7.25 | > 50 | > 50 | > 50 |  |
| CCN[C@H]1C[C@H](C)S(=O)(=O)c2sc(S(=O)(=O)NC(=O)[C@H](C)OC(=O)[C@H](C)OC(=O)[C@H](C)OC(=O)[C@H](C)OC(C)=O)cc21 [27-1] | 44.1 ± 14.8 | > 50 | > 50 | < 1 |  |
| CCN[C@H]1C[C@H](C)S(=O)(=O)c2sc(S(=O)(=O)NC(=O)[C@H](C)OC(=O)[C@H](C)OC(=O)[C@H](C)OC(=O)[C@H](C)OC(=O)[C@H](C)OC(C)=O)cc21 [28-1, dorzolamide-acetyl PLA (n=5)] | 89.2 ± 18.1 | > 50 | > 50 | < 1 |  |
| CCN[C@H]1C[C@H](C)S(=O)(=O)c2sc(S(=O)(=O)NC(=O)[C@H](C)OC(=O)[C@H](C)OC(=O)[C@H](C)OC(=O)[C@H](C)OC(=O)[C@H](C)OC(=O)[C@H](C)OC(C)=O)cc21 [29-1, dorzolamide-acetyl PLA (n=6)] |  | > 50 | > 50 | < 1 |  |
| CCN[C@H]1CN(CCCOC)S(=O)(=O)c2sc(S(=O)(=O)NC(=O)[C@H](C)OC(=O)[C@H](C)OC(=O)[C@H](C)OC(=O)[C@H](C)OC(C)=O)cc21 [37-1, brinzolamide-acetyl PLA (n=4)] | 41.5 ± 11.2 | > 50 | > 50 | < 1 |  |
| CCN[C@H]1CN(CCCOC)S(=O)(=O)c2sc(S(=O)(=O)NC(=O)[C@H](C)OC(=O)[C@H](C)OC(=O)[C@H](C)OC(=O)[C@H](C)OC(=O)[C@H](C)OC(C)=O)cc21 [38-1, brinzolamide-acetyl PLA (n=5)] | 102 ± 31.4 | > 50 | > 50 | < 1 |  |
| CCN[C@H]1CN(CCCOC)S(=O)(=O)c2sc(S(=O)(=O)NC(=O)[C@H](C)OC(=O)[C@H](C)OC(=O)[C@H](C)OC(C)(C)C)cc21 [40-1, brinzolamide-t-butyl PLA (n=3)] |  |  |  |  | in vitro stability / degradation kinetics [2]: significantly slower than its acetylated (36-1) or uncapped counterpart (34-2) |
| C=C(CC)C(=O)c1ccc(OCC(=O)O)c(Cl)c1Cl [54-1, ethacrynic acid] |  |  |  |  | Solubility DMSO ([3]; DMSO): >50 mg/mL; Solubility Water ([3]; water / aqueous solvent): <1.0 mg/mL |
| CCN[C@H]1CN(CCCOC)S(=O)(=O)c2sc(S(=O)(=O)NC(=O)[C@H](C)OC(=O)[C@H](C)OC(=O)[C@H](C)OC(=O)[C@H](C)OC(=O)CCC(=O)Oc3ccc4c(c3)/C(=C/c3[nH]c(C)c(C(=O)NCCN(CC)CC)c3C)C(=O)N4)cc21 [60-1, brinzolamide-PLA(n=4)-succinate-5-hydroxy-Sunitinib] |  |  | > 50 | < 1 | PLA (n=4) signal ([4]; after one day of incubation): 15.7%; PLA (n=4) signal ([4]; before incubation): 83%; degradation kinetics ([4]; one day): rapidly hydrolyzed |
| CCN[C@H]1CN(CCCOC)S(=O)(=O)c2sc(S(=O)(=O)NC(=O)[C@H](C)OC(=O)[C@H](C)OC(=O)[C@H](C)OC(=O)CCCCC(=O)Oc3ccc4c(c3)/C(=C/c3[nH]c(C)c(C(=O)NCCN(CC)CC)c3C)C(=O)N4)cc21 [61-3, (3Z)-3-[(4-{[2-(diethylamino)ethyl]carbamoyl}-3,5-dimethyl-1H-pyrrol-2-yl)methylidene]-2-oxo-2,3-dihydro-1H-indol-5-yl 1-(2S)-1-[(2S)-1-[(1S)-1-({[(4R)-4-(ethylamino)-2-(3-methoxypropyl)-1,1-dioxo-2H,3H,4H-1λ^6-thieno[3,2-e][1,2]thiazin-6-yl]sulfonyl}carbamoyl)ethoxy]-1-oxopropan-2-yl]oxy}-1-oxopropan-2-yl hexanedioate] |  |  |  |  | Solubility DMSO ([3]; DMSO): >50 mg/mL; Solubility Water ([3]; water / aqueous solvent): <1.0 mg/mL |
| CCN[C@H]1CN(CCCOC)S(=O)(=O)c2sc(S(N)(=O)=O)cc21 [Brinzolamide, reference compound] |  | < 7.5 | > 50 | < 1 | Solubility DMSO ([3]; DMSO): >50 mg/mL; Solubility Water ([3]; water / aqueous solvent): <1.0 mg/mL |
